Assays:
MAGL = MAGL (Mus musculus (Mouse), UniProt O35678); assay: In vitro competitive activity-based protein profiling, MAGL (mouse); type: biochemical; settings: for inhibition at 1 µM: read-out: MAGL % inh. 1 μM (mouse)
Outline: (§1)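 Mouse brain membrane fraction or cell lysates (mouse assays) and human prefrontal cortex or cell membrane fractions (human assays), 1.0 mg/mL protein, were preincubated with varying inhibitor concentrations for 30 min at 37° C. FP-Rh or HT-01 probe (50 μM stock in DMSO) was then added for another 30 min at 37° C.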

FAAH = FAAH (Mus musculus (Mouse), UniProt O08914); assay: In vitro competitive activity-based protein profiling, FAAH (mouse); type: biochemical; settings: for inhibition at 1 µM: read-out: FAAH % inh. 1 μM (mouse)
Outline: as §1

Chain of FAAH (O08914 whole entry): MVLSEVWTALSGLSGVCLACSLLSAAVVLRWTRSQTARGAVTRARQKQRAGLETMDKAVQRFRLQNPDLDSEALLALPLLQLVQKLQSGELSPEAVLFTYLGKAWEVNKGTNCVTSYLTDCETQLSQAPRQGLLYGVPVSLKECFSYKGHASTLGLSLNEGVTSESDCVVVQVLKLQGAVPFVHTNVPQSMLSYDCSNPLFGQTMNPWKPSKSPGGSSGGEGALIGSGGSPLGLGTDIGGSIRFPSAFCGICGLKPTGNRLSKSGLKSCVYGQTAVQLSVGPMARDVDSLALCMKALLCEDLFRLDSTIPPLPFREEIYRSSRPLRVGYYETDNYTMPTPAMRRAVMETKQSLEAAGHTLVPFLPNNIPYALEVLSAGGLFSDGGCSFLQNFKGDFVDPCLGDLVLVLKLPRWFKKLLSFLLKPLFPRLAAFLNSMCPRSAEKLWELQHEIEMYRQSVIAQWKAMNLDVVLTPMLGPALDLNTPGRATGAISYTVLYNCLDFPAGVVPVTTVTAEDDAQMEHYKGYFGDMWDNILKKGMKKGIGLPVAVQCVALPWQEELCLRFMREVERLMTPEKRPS
Chain of MAGL (O35678 whole entry): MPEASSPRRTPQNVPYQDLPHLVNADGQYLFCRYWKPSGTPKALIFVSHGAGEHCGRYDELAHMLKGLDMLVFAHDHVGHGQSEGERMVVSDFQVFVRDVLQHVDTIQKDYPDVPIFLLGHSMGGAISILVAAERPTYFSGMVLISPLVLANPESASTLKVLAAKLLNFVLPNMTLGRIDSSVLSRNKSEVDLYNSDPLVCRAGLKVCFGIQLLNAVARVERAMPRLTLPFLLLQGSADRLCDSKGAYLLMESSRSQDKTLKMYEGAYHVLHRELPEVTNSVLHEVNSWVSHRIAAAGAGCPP

SMILES	inhibition at 1 µM (MAGL)	inhibition at 1 µM (FAAH)	IC50 (MAGL)	IC50 (FAAH)
CS(=O)(=O)Nc1cnn(C(=O)N2CCC3(CCN(Cc4cc(Cl)ccc4C(F)(F)F)C3)C2)c1 (stereo not drawn) [Example 284, N-[1-[(7-[[5-chloro-2-(trifluoromethyl)phenyl]methyl]-2,7-diazaspiro[4.4]nonan-2-yl)carbonyl]-1H-pyrazol-4-yl]methanesulfonamide]	25 to 50%	≥ 75%	–	–
COc1ccccc1CN1CC2(CCN(C(=O)n3cc(N(C)C(C)=O)cn3)CC2)C1 [Example 43, N-(1-(2-(2-methoxybenzyl)-2,7-diazaspiro[3.5]nonane-7-carbonyl)-1H-pyrazol-4-yl)-N-methylacetamide]	≥ 75%	0 to 25%	–	–
CC(=O)N(C)c1cnn(C(=O)N2CCC3(CCN(Cc4c(Cl)cccc4Cl)C3)C2)c1 (stereo not drawn) [Example 49, N-(1-(7-(2,6-dichlorobenzyl)-2,7-diazaspiro[4.4]nonane-2-carbonyl)-1H-pyrazol-4-yl)-N-methylacetamide]	≥ 75%	≥ 75%	100 to 1000 nM	100 to 1000 nM
CC(=O)N(C)c1cnn(C(=O)N2CC3CN(Cc4cccc(N5CCCC5)c4)CC3C2)c1 (stereo not drawn) [Example 119, N-methyl-N-(1-(5-(3-(pyrrolidin-1-yl)benzyl)octahydropyrrolo[3,4-c]pyrrole-2-carbonyl)-1H-pyrazol-4-yl)acetamide]	≥ 75%	≥ 75%	≤ 100 nM	≤ 100 nM
CS(=O)(=O)Nc1cnn(C(=O)N2CC3CN(Cc4cccc(Cl)c4)CC3C2)c1 (stereo not drawn) [Example 7, N-(1-(5-(3-chlorobenzyl)octahydropyrrolo[3,4-c]pyrrole-2-carbonyl)-1H-pyrazol-4-yl)methanesulfonamide]	0 to 25%	≥ 75%	1000 to 10000 nM	100 to 1000 nM
CC(=O)N(C)c1cnn(C(=O)N2CC3CN(Cc4ccc(F)cc4)CC3C2)c1 (stereo not drawn) [Example 178, N-(1-(5-(4-fluorobenzyl)octahydropyrrolo[3,4-c]pyrrole-2-carbonyl)-1H-pyrazol-4-yl)-N-methylacetamide]	25 to 50%	≥ 75%	1000 to 10000 nM	100 to 1000 nM
CC(=O)N(C)c1cnn(C(=O)N2CC3CN(Cc4ccc(C(F)(F)F)c(N5CCOCC5)c4)CC3C2)c1 (stereo not drawn) [Example 124, N-methyl-N-(1-(5-(3-morpholino-4-(trifluoromethyl)benzyl)octahydropyrrolo[3,4-c]pyrrole-2-carbonyl)-1H-pyrazol-4-yl)acetamide]	≥ 75%	≥ 75%	≤ 100 nM	≤ 100 nM
CC(=O)N(C)c1cnn(C(=O)N2CCC3(CCN(Cc4ccc(-c5ccncn5)cc4Cl)C3)C2)c1 (stereo not drawn) [Example 273, N-(1-(7-(2-chloro-4-(pyrimidin-4-yl)benzyl)-2,7-diazaspiro[4.4]nonane-2-carbonyl)-1H-pyrazol-4-yl)-N-methylacetamide]	≥ 75%	≥ 75%	100 to 1000 nM	≤ 100 nM
CC(=O)N(C)c1cnn(C(=O)N2C[C@H]3C[C@@H](NCc4ccccc4Cl)C[C@H]3C2)c1 [Example 133, N-(1-(cis-5-(2-chlorobenzylamino)octahydrocyclopenta[c]pyrrole-2-carbonyl)-1H-pyrazol-4-yl)-N-methylacetamide]	25 to 50%	≥ 75%	–	–
CC(=O)N(C)c1cnn(C(=O)N2CC3CN(Cc4ccc(Oc5nc6ccccc6s5)cc4C(F)(F)F)CC3C2)c1 (stereo not drawn) [Example 254, N-(1-(5-(4-(benzo[d]thiazol-2-yloxy)-2-(trifluoromethyl)benzyl)octahydropyrrolo [3,4-c]pyrrole-2-carbonyl)-1H-pyrazol-4-yl)-N-methylacetamide]	≥ 75%	≥ 75%	–	–
CC(=O)N(C)c1cnn(C(=O)N2CCC3(CC2)CN(Cc2ccccc2Cl)C3)c1 [Example 40, N-(1-(2-(2-chlorobenzyl)-2,7-diazaspiro[3.5]nonane-7-carbonyl)-1H-pyrazol-4-yl)-N-methylacetamide]	≥ 75%	≥ 75%	≤ 100 nM	100 to 1000 nM
